Experimental data reported in patent EP4729516A1, “S[…] DERIVATIVE, INTERMEDIATE, PREPARATION METHOD THEREFOR AND USE THEREOF” (Jiangsu NHWA Pharmaceutical Co., Ltd, priority 2023, dated 2024).
Structures can show the parent of a compound that is named as a salt. Where two headings read alike, the source gives them in different places.

What was measured:
Male SD rats = assay: Fluctuations in blood pressure and heart rate after administration; type: in vivo; conditions: for maximum decrease rates of HR / maximum increase rates of MAP / recovery of HR: compared with dexmedetomidine hydrochloride; for HR decrease Maximum decrease rate / MAP decrease Maximum decrease rate / MAP increase Maximum increase rate: dose as in Test Example 3, within 90 min; for decreases in MAP: no significant decreases greater than the stated value
Experimental: Male SD rats, weighing 250-300 g, with 4 rats per group, were maintained under general anesthesia by isoflurane inhalation. Femoral artery cannulation was performed, and blood pressure and heart rate were monitored using a Powerlab data acquisition and analysis system. 30 min after the baseline values stabilized, the baseline mean arterial pressure (MAP0) and baseline heart rate (HR0) were measured. The rats were given a solution of each compound in normal saline via tail vein injection (the dose of each compound was the same as in Test Example 3, with rapid intravenous injection over 10 s). Blood pressure and heart rate were continuously recorded for 90 min. MAP^+ (the difference between the maximum mean arterial pressure (MAPmax) and MAP0), MAP^-(the difference between the minimum mean arterial pressure (MAPmin) and MAP0), and HR^- (the difference between the minimum heart rate (HRmin) and HR0) within 90 min were calculated. For calculation, the maximum increase rate of mean arterial pressure = MAP^+/MAP0 × 100%; the maximum decrease rate of mean arterial pressure = MAP^-/MAP0 × 100%; and the maximum decrease rate of heart rate = HR^-/HR0 × 100%.

α2A receptor = target: T1, α2A receptor (Homo sapiens, UniProt P08913); assay: Competitive receptor binding assay, α2A (3H-RX821002, CHO-K1-α2A membranes); conditions: for affinity for the α2A receptor / affinity α1A/2A: in words, compared with dexmedetomidine hydrochloride
T1 construct: expressed in transfected cells; host or cells: CHO-K1
T1 sequence (P08913 1-465): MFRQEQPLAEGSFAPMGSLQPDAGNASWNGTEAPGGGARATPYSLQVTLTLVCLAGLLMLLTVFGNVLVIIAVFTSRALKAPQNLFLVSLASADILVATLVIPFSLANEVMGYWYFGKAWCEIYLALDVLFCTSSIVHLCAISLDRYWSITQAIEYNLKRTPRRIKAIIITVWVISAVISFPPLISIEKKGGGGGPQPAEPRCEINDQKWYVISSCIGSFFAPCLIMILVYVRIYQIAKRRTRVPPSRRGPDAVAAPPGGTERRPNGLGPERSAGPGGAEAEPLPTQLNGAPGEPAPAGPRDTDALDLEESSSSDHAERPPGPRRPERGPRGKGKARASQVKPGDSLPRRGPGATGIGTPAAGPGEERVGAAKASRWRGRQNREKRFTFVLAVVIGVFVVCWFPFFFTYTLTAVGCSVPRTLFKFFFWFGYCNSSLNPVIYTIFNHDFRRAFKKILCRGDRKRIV
Experimental: Standard buffer (used for preparing α1A, α2A, α2B, and α2C receptor membranes): 146 mg of EDTA was weighed out, a 50 mM Tris-HCl buffer was added to reach a total volume of 1000 mL, and the pH was adjusted to 7.7 to make a final concentration of 0.5 mM for EDTA.
Test sample (compound): The theoretical sample weighing amount was calculated according to the designed concentration and the required volume. Generally, the test sample was dissolved in DMSO to an initial preparation dose of 5.0 × 10^-3 M, and the solution was sequentially diluted with DMSO to 5.0 × 10^-4 M-5.0 × 10^-9 M; the diluted DMSO solution was diluted with Buffer to a working concentration of 5.0 × 10^-5 M-5.0 × 10^-11 M; and the final concentration of DMSO in the working solution was 1% (the final concentration of DMSO in the reaction system was 0.2%). The test sample was prepared and then stored at 4 °C. After the test was completed, the test sample was discarded.
CHO-K1-α1A, CHO-K1-α2A, CHO-K1-α2B, and CHO-K1-α2C cells were taken out of a refrigerator at -80 °C, thawed naturally, and centrifuged at 2000 g at 4 °C for 10 min. The supernatant was discarded, and the pellet was collected. A buffer was added to the pellet, and the mixture was homogenized for 20-30 s and then centrifuged at 48000 g at 4 °C for 25 min. The supernatant was discarded, and the buffer was added again. The mixture was homogenized for 20-30 s and centrifuged at 48000 g at 4 °C for 25 min. The supernatant was discarded, and the pellet was collected and stored at -80 °C.
Table 1. Experimental conditions for radioactive binding
Step 1: 50 µL of a vehicle (1% DMSO) was added to a total binding tube (TB), 50 µL of a non-labeled substance (with a final concentration of 1.0 × 10^-5 M) was added to a non-specific binding tube (NB), and 50 µL of a test compound was added to each test compound tube (CB).
Step 2: 100 µL of a buffer was added to each reaction tube.
Step 3: The prepared membrane was suspended in a buffer to give a membrane suspension with a corresponding concentration for later use.
Step 4: 50 µL of the corresponding radioligand was added to each reaction tube.
Step 5: 50 µL of the membrane suspension was added to each reaction tube.
Step 6: Each reaction tube was incubated according to the incubation conditions. After the reaction was completed, the binding ligands were rapidly filtered under reduced pressure. The UniFilter GF/C plate was saturated with a 0.5% PEI solution 1 h in advance, fully washed with an ice-cold Tris-HCl buffer, filtered under vacuum, then placed into a thermostatic dryer, and dried for 30 min. The filter plate was taken out, and a MICROSCINT PS scintillation solution was added at 40 µL/well.
Step 7: The scintillation vial was put into a liquid scintillation counter for counting.
Based on the effect values of the compound samples at different concentration test points, the GraphPad Prism software was used to fit the action curves of the compound samples to the receptors, and the Ki values were calculated.

[1] = isoflurane-anesthetized male SD rats, tail vein injection, dose as in Test Example 3
[2] = isoflurane-anesthetized male SD rats, tail vein injection
[3] = Ki, CHO-K1-α2A membranes, 3H-RX821002, read-out: Binding α2A

SMILES	maximum decrease rates of HR (Male SD rats; in words, rats)	recovery of HR (Male SD rats; in words, rats)	HR decrease Duration (Male SD rats; [1]) [min]	MAP increase Duration (Male SD rats; [1]) [min]	HR decrease Maximum decrease rate (Male SD rats; [2]) [%]	MAP decrease Maximum decrease rate (Male SD rats; [2]) [%]	MAP increase Maximum increase rate (Male SD rats; [2]) [%]	decreases in MAP (Male SD rats; rats) [%]	Ki (α2A receptor) [nM]	affinity for the α2A receptor (α2A receptor)	affinity α1A/2A (α2A receptor)	also measured
C[C@H](c1c[nH]cn1)c1cccc2c1CCC2 [Compound 31-b, (S)-4-[1-(2,3-dihydro-1H-inden-4-yl)ethyl]-1H-imidazole]	lower	faster	60	2	30.2±7.7	5.3±4.6	24.0±11.1	≤ 10	23.5			maximum increase rates of MAP (Male SD rats; in words, rats): lower
Cc1cccc([C@H](C)c2cnc[nH]2)c1C [Dexmedetomidine hydrochloride, reference compound]			90	2	33.8±5.3	16.5±14.6	27.7±4.1					change in MAP after administration (Male SD rats; in words, initial increase followed by a decrease, rats): biphasic change in MAP; MAP decrease Duration (Male SD rats; [1]): 90 min; sustained reductions in MAP and HR (Male SD rats; rats, recording for 90 min): 90 min
CC(c1c[nH]cn1)c1cccc2c1OCC2 (stereo not shown) [Compound 10, 4-[1-(2,3-Dihydrobenzofuran-7-yl)ethyl]-1H-imidazole]	lower	faster	30	2	24.2±5.7	7.9±7.4	17.3±5.0	≤ 10	2.4	superior	superior	maximum increase rates of MAP (Male SD rats; in words, rats): lower
c1cc2c(c(Cc3c[nH]cn3)c1)SCCC2 [Compound 1, 4-[1-(Thiochroman-8-yl)methyl]-1H-imidazole]										comparable		Ki (α2A receptor; [3]): 15.6 nM
CC(c1c[nH]cn1)c1cccc2c1SCCC2 (stereo not shown) [Compound 2, 4-(1-[Thiochroman-8-yl)ethyl]-1H-imidazole]										superior		Ki (α2A receptor; [3]): 7.72 nM
CC(c1c[nH]cn1)c1cccc2c1CCCC2 (stereo not shown) [Compound 4, 4-(1-(5,6,7,8-Tetrahydronaphthalen-1-yl)ethyl)-1H-imidazole]									28.7	comparable	superior	
CC(c1c[nH]cn1)c1cccc2c1C=CC2(C)C (stereo not shown) [Compound 17, 4-[1-(1,1-Dimethyl-1H-inden-4-yl)ethyl]-1H-imidazole]									143			
CC(c1c[nH]cn1)c1cccc2c1CC2 (stereo not shown) [Compound 3, 4-(1-(Bicyclo[4.2.0]octa-1(6),2,4-trien-2-yl)ethyl)-1H-imidazole]									29.1	comparable	comparable	
CC(c1c[nH]cn1)c1cccc2c1C=CC2 (stereo not shown) [Compound 8, 4-[1-(1H-Inden-4-yl)ethyl]-1H-imidazole]	lower	faster	60	2	24.9±10.8	7.1±4.1	32.0±10.5	≤ 10	10.8	comparable	superior	
C[C@H](c1c[nH]cn1)c1cc(F)cc2c1C=CC2 [Compound 11-b, 4-[(1S)-1-(6-fluoro-1H-inden-4-yl)ethyl]-1H-imidazole]	lower	faster	60	2	31.2±3.19	6.7±4.02	24.1±4.96	≤ 10	211			maximum increase rates of MAP (Male SD rats; in words, rats): lower
C[C@H](c1c[nH]cn1)c1cc(F)cc2c1C(=O)CC2 [Compound 38-b, (S)-7-(1-(1H-imidazol-4-yl)ethyl)-5-fluoro-2,3-dihydro-1H-inden-1-one]												Ki (α2A receptor; [3]): 701 nM
CC1Cc2cccc(C(C)c3c[nH]cn3)c2O1 (stereo not shown) [Compound 32, 4-[1-(2-Methyl-2,3-dihydrobenzofuran-7-yl)ethyl]-1H-imidazole]									4.94			
